Test results reported in paper PMC3499586, “Heterotrimeric G-protein Signaling Is Critical to Pathogenic Processes in Entamoeba histolytica” (PLoS Pathogens, 2012).

Legend:
human Gαi1 = target: T1, human Gαi1 (Homo sapiens, UniProt P63096); assay: […]GTPγS radionucleotide binding; conditions: 30 °C; association limited by spontaneous GDP release; labelled compound; a rate, not an affinity; figure legend gives 0.06 ±0.01
T1 construct: gene GNAI1; purified protein; details not in main text

EhGα1 = target: T2, EhGα1 (Entamoeba histolytica, UniProt C4M483); assay: […]GTPγS radionucleotide binding; conditions: 30 °C; association limited by spontaneous GDP release; labelled compound; a rate, not an affinity
T2 construct: gene EHI_140350; E. coli; N-terminal TEV-cleavable His6 tag; HM-1:IMSS used for trophozoite work

EhRGS-RhoGEF = target: T3, EhRGS-RhoGEF (E. histolytica, UniProt C4LYV4 1-519); assay: SPR
T3 chain: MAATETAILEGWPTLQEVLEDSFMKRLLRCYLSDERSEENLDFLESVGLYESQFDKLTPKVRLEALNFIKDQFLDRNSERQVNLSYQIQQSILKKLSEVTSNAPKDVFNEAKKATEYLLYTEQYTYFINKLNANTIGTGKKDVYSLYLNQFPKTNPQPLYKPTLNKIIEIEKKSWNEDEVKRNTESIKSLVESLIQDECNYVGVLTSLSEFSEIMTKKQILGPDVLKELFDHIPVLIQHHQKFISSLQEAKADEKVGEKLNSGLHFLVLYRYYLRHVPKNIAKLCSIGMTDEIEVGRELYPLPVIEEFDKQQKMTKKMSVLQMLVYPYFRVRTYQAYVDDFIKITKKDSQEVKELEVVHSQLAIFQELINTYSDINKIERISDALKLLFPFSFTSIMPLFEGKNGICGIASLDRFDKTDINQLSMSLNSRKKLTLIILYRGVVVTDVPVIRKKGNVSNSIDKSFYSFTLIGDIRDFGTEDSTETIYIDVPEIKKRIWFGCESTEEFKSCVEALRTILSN

T1 sequence (P63096 2-354): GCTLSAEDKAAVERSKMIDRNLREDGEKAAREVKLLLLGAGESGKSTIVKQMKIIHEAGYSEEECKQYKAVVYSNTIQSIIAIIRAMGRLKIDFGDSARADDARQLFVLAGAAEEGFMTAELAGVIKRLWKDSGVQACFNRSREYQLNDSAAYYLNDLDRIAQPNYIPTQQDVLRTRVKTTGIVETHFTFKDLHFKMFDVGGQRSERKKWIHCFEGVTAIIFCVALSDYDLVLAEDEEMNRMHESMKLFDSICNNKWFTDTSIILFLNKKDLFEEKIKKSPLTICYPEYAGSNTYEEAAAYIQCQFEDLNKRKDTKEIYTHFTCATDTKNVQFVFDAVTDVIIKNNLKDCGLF

Molecule	kobs (human Gαi1)	kobs (EhGα1)	Kd (EhRGS-RhoGEF)
Nc1nc2c(ncn2[C@@H]2O[C@H](COP(=O)(O)OP(=O)(O)OP(O)(O)=S)[C@@H](O)[C@H]2O)c(=O)[nH]1 [GTPγS]	0.064 min⁻¹	0.27 ± 0.06 min⁻¹	–
EhGα1 (recombinant, purified from E. coli) (natural protein) MGCGQSKDNSIDKQIVEMAKSKPITVMLLGSGESGKSTIAKQLKILFGGGFPEQERATHKSSICSNVVTCMRTLIEQSAILNHPMKYQPKSKEFTTEDPVTLPFSPELVGDVEALWADEGIQATYEESAKFQLPDCAKYLFENVKRIAMEDYVPTEEDLIHNRTKTTGIHEYDFVVKDIPFHLIDVGGQRSERKKWVSFFSDVDCAIFVTSLAEYDMKLYEDGNTSRLTESIAVFKDIMTNEFLKGAVKLIFLNKMDLFEEKLTKVPLNTIFPEYTGGDNAVMGAQYIQQLFTGKLQTEEMNISGADGTANIEGAVNEKVYTNPTNATDGSNIKRVFMLAVDVIMKNMAANGKMRPTK	–	–	2100 nM
